Test results reported in PMC6246682, “Structural Basis of Tau Interaction With BIN1 and Regulation by Tau Phosphorylation” (Frontiers in Molecular Neuroscience, 2018).

Experiments:
BIN1 SH3 domain = molecular target: T1, BIN1 SH3 domain (Homo sapiens, UniProt O00499); test: NMR chemical shift perturbation titration, dissociation constant determination; format: binding; conditions: peptide/BIN1 SH3 molar ratios 0, 0.5, 1, 2, 4, 8 and 12; 1H-15N HSQC
T1 construct: The BIN1 isoform 1 and BIN1 SH3 domain were expressed and purified as previously described; made in house
T1 sequence (O00499 520-593 limits assumed): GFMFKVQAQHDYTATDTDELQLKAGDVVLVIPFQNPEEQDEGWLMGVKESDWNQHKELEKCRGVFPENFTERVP
Experimental: The weighted average chemical shift differences were calculated as described by [Garrett et al. (1997)] - i.e., (ΔH^2 + (ΔN×0.2)^2)^1/2, with ΔH and ΔN the chemical shift changes for ^1H and ^15N, respectively. Dissociation constants were obtained by fitting the chemical shift perturbation data to the following equation Δδobs = Δδmax(a + b + Kd−((a + b + Kd)^2−4ab)^1/2)/2a where Δδobs is the weighted average of the chemical shifts in the free and bound states and Δδmax is the maximal signal change upon saturation. Kd is the dissociation constant, a and b are the total peptide and BIN1 SH3 concentrations, respectively. Kd were averaged based on chemical shift perturbations of 7 distinct resonances.
Labeled resonances correspond to the major chemical shift perturbations, color coded as in Figure 4A. Enlarged regions of the superimposed spectra show 3 resonances involved in the interaction.
Det ail o f o ver la id 1H-15N HSQC spe ct ra o f BIN1 SH3 do ma in, in t he prese nce o f increa s ing a mo unt o f Tau(210-240) pept ide, mo lar rat io s pe pt ide/BIN1 SH3 0, 0.5, 1, 2, 4, 8 and 12 (co lo r sca le fro m purp le t o gray), o r o f p ho spho-Tau(210-240) pept ide, sa me mo lar rat ios (sa me co lo r sca le). A spect rum is reco rded fo r each t it rat io n po int . […]

BIN1 isoform 1 = test: 1H-15N HSQC competition with intramolecular BIN1 SH3/CLAP interaction; format: binding; conditions: 1H-15N HSQC of BIN1 isoform 1 (0.08 mM), 20°C, 900 MHz, molar ratio 1:8
Experimental: NMR experiments were recorded on Bruker 950-MHz, 900-MHz, or 600-MHz spectrometers all equipped with a triple-resonance cryogenic probe. NMR measurements were performed in 50 mM sodium phosphate buffer, pH 7.3, 30 mM NaCl, 3 mM DTT and 10% D2O (NMR buffer). BIN1 SH3 domain backbone assignment has been previously reported ([Malki et al., 2017]). […] For side-chain assignment, additional 3D^15N NOESY-HSQC, 3D^15N-edited TOCSY, 3D (H)CCH TOCSY, and 3D H(C)CH TOCSY experiments were recorded. A 3D ^13C-edited NOESY was further used for side-chain assignment validation. All assignment experiments were recorded at 5°C. Chemical shift values (Supplementary Table S1) were directly transferred at 20°C, because the differences of chemical shift values were small between 5 and 20°C. […] BIN1 isoform 1 ^1H-^15N HSQC spectra were recorded at 20°C at 900 MHz (0.08 mM sample) with 3096 points (direct) and 280 points (indirect), for spectral width of 14 ppm and 26 ppm, respectively, and 256 scans. A 3D F1 ^13C/^15N-filtered and F3 ^15N-edited NOESY-HSQC, with WATERGATE (WATER suppression by GrAdient-Tailored Excitation) scheme ([Piotto et al., 1992]), named noesyhsqcf3gpwgx13d, part of the Bruker pulse sequence library, was recorded at 20°C at 950 MHz for the detection of intermolecular NOEs to amide groups. […] Spectra were processed using TopSpin software (Bruker) and analyzed by CcpNmr Analysis ([Vranken et al., 2005]).
As NMR is sensitive to mobility, this equilibrium translated into detection of BIN1 SH3 domain signals only upon its release from the intramolecular interaction ([Malki et al., 2017]). […] Consequently, in the presence of the phosphorylated Tau peptide (210–240), BIN1 SH3 domain remained immobilized by the intramolecular interaction with BIN1 isoform1 CLAP domain, mainly adopting the closed conformation.
(A) ^1H-^15N HSQC spectrum of BIN1 isoform 1 (112 KDa, homodimer). […] (B) ^1H-^15N HSQC spectra of BIN1 isoform 1 in the presence of phospho-Tau (210–240), molar ratio 1:8. The signals corresponding to the isolated BIN1 SH3 domain were barely detected.

saturation / affinity in titration (BIN1 SH3 domain): lo wer a ffin it y
Substance: phosphorylated Tau (210–240): Tau (210–240) phosphorylated by CDK2/CycA3; T212, T231, S235 full, T217 half-phosphorylated
competition with intramolecular BIN1 SH3/CLAP interaction (BIN1 isoform 1): not able to displace the intramolecular interaction of BIN1 SH3 with BIN1 CLAP domain
competition with intramolecular BIN1 SH3/CLAP interaction (BIN1 isoform 1; listed as Phospho-Tau (210–240)): cannot compete with the intramolecular interaction of BIN1 SH3 with the CLAP domain
competition with intramolecular BIN1 SH3/CLAP interaction (BIN1 isoform 1; listed as Tau (210–240) phosphorylated at four different sites (T212, T217, T231, and S235)): unable to compete with the intramolecular interaction of BIN1 SH3 domain with its CLAP domain
competition with intramolecular BIN1 SH3/CLAP interaction (BIN1 isoform 1; listed as Tau (210–240) phosphorylated at multiple sites): not able to compete with the intra-molecular interaction of BIN1 SH3 with the CLAP domain as efficiently as its unphosphorylated counterpart
